According to ChEMBL document CHEMBL6096630, “Enhancing therapeutic efficacy in homologous recombination-proficient pancreatic cancer via the combination of PARP1-PROTAC and a BRD4 inhibitor” (Bioorg Med Chem, 2024):
Active and inactive are the calls of the source. The calls are words filed in the database; no cut-off is given here.

Assays:
PANC-1 [1] = experiment: Induction of apoptosis in human PANC-1 cells assessed as increase in cleaved caspase-3 level at 2 uM incubated for 48 hrs in presence of JQ1 by Western blot analysis; type: functional, cell-based
PANC-1 [2] = experiment: Induction of apoptosis in human PANC-1 cells at 2 uM incubated for 48 hrs in presence of JQ1 by Annexin V-FITC/PI staining based flow cytometry relative to compound treatment alone; type: functional
PANC-1 [3] = experiment: Synergistic antiproliferative activity against human PANC-1 cells expressing wild-type BRCA assessed as inhibition of cell viability incubated for 5 days in presence of JQ1 by CCK8 assay; type: functional, cell-based; details: time 5.0 day
[4] = target: Protein cereblon/Poly [ADP-ribose] polymerase 1 (Homo sapiens, UniProt P09874+Q96SW2); experiment: PROTAC activity at CRBN/PARP1 in human BXPC-3 cells assessed as induction of PARP1 degradation incubated for 24 hrs by Western blot analysis relative to control; type: cell-based
[5] = Toxicity in BALB/c mouse xenografted with human PANC-1 cells assessed as pathological changes in lung at 20 mg/kg, ip for 4 weeks administered for 5 days consecutively and 2 days without treatment on every week by H and E staining based analysis; type: organism-based; details: in vivo, 672 h
PANC-1 [6] = experiment: Induction of apoptosis in human PANC-1 cells assessed as early apoptotic cells at 1 uM incubated for 48 hrs by Annexin V-FITC/PI staining based flow cytometry (reference value: 1.41 %); type: functional
PANC-1 [7] = experiment: Induction of cell cycle arrest in human PANC-1 cells assessed as accumulation at G1 phase at 0.5 uM incubated for 24 hrs by PI staining based flow cytometry (reference value: 51.70 %); type: functional
PANC-1 [8] = experiment: Antitumor activity against human PANC-1 cells xenografted in BALB/c mouse assessed as inhibition of tumor volume at 20 mg/kg, ip for 4 weeks administered for 5 days consecutively and 2 days without treatment on every week in presence of OL; type: functional, organism-based
[9] = Toxicity in BALB/c mouse xenografted with human PANC-1 cells assessed as pathological changes in liver at 20 mg/kg, ip for 4 weeks administered for 5 days consecutively and 2 days without treatment on every week in presence of OL by H and E staining based analysis; type: organism-based; details: in vivo, 672 h
[10] = Toxicity in BALB/c mouse xenografted with human PANC-1 cells assessed as pathological changes in spleen at 20 mg/kg, ip for 4 weeks administered for 5 days consecutively and 2 days without treatment on every week in presence of OL by H and E staining based analysis; type: organism-based; details: in vivo, 672 h
PANC-1 [11] = experiment: Antitumor activity against human PANC-1 cells xenografted in BALB/c mouse assessed as reduction in tumor growth at 20 mg/kg, ip for 4 weeks administered for 5 days consecutively and 2 days without treatment on every week; type: functional, organism-based
PANC-1 [12] = experiment: Anti-migration activity in human PANC-1 cells at 1 uM in presence of OL incubated for 24 hrs by wound healing assay; type: functional, cell-based
[13] = Toxicity in BALB/c mouse xenografted with human PANC-1 cells assessed as animal morbidity at 20 mg/kg, ip for 4 weeks administered for 5 days consecutively and 2 days without treatment on every week in presence of OL; type: organism-based; details: in vivo, 672 h
PANC-1 [14] = experiment: Induction of cell cycle arrest in human PANC-1 cells assessed as accumulation at G1/S phase at 0.12 to 2 uM incubated for 24 hrs by PI staining based flow cytometry; type: functional; details: dose 0.12-2 µM
PANC-1 [15] = experiment: Induction of apoptosis in human PANC-1 cells assessed as early apoptotic cells at 0.25 uM incubated for 48 hrs by Annexin V-FITC/PI staining based flow cytometry (reference value: 1.41 %); type: functional
PANC-1 [16] = experiment: Induction of cell cycle arrest in human PANC-1 cells assessed as accumulation at G2 phase at 1 uM incubated for 24 hrs by PI staining based flow cytometry (reference value: 9.36 %); type: functional
PANC-1 [17] = experiment: Induction of apoptosis in human PANC-1 cells at 2 uM incubated for 48 hrs by Annexin V-FITC/PI staining based flow cytometry relative to control; type: functional
PANC-1 [18] = experiment: Induction of apoptosis in human PANC-1 cells at 2 uM incubated for 48 hrs in presence of JQ1 by Annexin V-FITC/PI staining based flow cytometry relative to control; type: functional
BXPC-3 = experiment: Synergistic antiproliferative activity against human BXPC-3 cells expressing wild-type BRCA assessed as combination index at 2:1 ratio of compound:JQ1 incubated for 5 days by CCK8 assay; type: functional; details: time 5 day

Sequence of Protein cereblon/Poly [ADP-ribose] polymerase 1 (P09874 2-1014 limits assumed): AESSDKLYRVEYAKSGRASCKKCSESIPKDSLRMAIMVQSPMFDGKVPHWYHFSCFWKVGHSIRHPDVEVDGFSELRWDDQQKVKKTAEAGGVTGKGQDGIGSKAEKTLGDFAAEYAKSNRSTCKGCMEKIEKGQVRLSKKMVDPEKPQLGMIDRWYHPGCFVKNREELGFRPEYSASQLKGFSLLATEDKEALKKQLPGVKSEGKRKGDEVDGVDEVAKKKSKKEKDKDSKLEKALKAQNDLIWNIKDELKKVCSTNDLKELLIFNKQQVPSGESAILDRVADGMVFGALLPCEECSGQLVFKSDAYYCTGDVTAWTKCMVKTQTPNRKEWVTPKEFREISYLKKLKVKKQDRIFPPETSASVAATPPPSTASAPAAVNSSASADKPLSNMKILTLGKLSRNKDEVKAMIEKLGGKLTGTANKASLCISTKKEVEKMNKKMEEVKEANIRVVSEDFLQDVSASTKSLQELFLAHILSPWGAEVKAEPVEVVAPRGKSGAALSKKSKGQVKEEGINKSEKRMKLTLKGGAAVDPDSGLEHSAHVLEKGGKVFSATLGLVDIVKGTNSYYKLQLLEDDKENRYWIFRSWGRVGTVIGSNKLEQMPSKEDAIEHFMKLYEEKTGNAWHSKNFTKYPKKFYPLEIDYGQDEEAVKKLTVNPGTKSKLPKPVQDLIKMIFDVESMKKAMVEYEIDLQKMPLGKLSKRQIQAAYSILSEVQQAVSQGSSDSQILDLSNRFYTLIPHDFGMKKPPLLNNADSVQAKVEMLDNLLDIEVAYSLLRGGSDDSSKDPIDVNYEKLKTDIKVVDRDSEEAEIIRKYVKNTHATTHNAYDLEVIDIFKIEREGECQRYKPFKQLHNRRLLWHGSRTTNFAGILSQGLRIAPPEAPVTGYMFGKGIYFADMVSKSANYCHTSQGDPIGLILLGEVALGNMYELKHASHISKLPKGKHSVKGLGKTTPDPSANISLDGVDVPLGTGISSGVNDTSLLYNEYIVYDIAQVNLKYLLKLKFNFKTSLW
Sequence of Protein cereblon/Poly [ADP-ribose] polymerase 1 (Q96SW2 whole entry partner): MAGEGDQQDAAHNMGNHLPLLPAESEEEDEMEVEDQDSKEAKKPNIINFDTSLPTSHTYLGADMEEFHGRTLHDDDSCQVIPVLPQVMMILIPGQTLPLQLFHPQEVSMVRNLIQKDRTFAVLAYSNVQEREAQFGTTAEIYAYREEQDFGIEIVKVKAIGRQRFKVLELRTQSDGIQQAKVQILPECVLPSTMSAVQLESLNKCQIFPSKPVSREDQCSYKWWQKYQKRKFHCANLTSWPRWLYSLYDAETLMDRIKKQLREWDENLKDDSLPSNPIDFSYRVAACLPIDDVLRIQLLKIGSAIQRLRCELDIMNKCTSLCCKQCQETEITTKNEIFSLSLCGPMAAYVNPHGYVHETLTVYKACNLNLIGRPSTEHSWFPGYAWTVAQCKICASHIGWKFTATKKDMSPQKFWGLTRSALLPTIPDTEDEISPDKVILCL

In the case of `O=C1CCC(N2C(=O)c3cccc(NC(=O)CNCCCCCCCCCCC(=O)N4CCN(C(=O)c5cc(Cc6n[nH]c(=O)c7ccccc67)ccc5F)CC4)c3C2=O)C(=O)N1` (centres undefined), the Activity (PANC-1 [1]) is reported as “Active”, the Activity (PANC-1 [2]) is reported as 20.5% and the inhibition (PANC-1 [3]) is reported as “Active”. The Emax [4] was greater than 92%.
With `Cc1sc2c(c1C)C(c1ccc(Cl)cc1)=N[C@@H](CC(=O)OC(C)(C)C)c1nnc(C)n1-2` the Activity [5] was “Non-toxic”, the Activity (PANC-1 [6]) was 6.72% and the Activity (PANC-1 [7]) was 53.78%. The inhibition (PANC-1 [8]) was “Active”, the Activity [9] was “Non-toxic” and the Activity [10] was “Non-toxic”. The Activity (PANC-1 [11]) was “Active”, the Activity (PANC-1 [12]) was “Active” and the Activity [13] was “Non-toxic”. The Activity (PANC-1 [14]) was “Active”, the Activity (PANC-1 [15]) was 4.08% and the Activity (PANC-1 [16]) was 10.75%.
Work on `O=C(c1cc(Cc2n[nH]c(=O)c3ccccc23)ccc1F)N1CCN(C(=O)C2CC2)CC1` [OLAPARIB] yielded an Activity (PANC-1 [17]) of 8.1%, an Activity (PANC-1 [18]) of 26.9% and a CI (BXPC-3) of less than 1.
